According to patent publication US10137105B2, “Combination treatment protocol” (Bionomics Limited, priority 2015, dated 2018):

What was measured:
CLL cells on L4.5 stroma = experiment: Apoptosis of CLL cells co-incubated 24 h on CD154+ L4.5 stromal cells; type: cell-based, human
Method: (§1) CLL cells were obtained from consented patients at the Norris Cotton Cancer Center. Cells were purified by centrifugation in Ficoll-Paque PLUS from 10 mL of blond. Lymphocytes were plated in RPMI 1640 plus 10% serum at 1×10^6 cells/mL after three washes in PBS+2 mmol/L EDTA. Cells were either incubated immediately with reagents or after 24 h incubation with confluent layers of CD154+ stromal cells (L 4.5) at a ratio of 5:1.
(§2) Cells were incubated for […] with 2 μg/mL Hoechst 33342 at 37° C. and visualized with a fluorescent microscope. At least 200 cells were scored for each sample. The percentage of cells with condensed chromatin was recorded.
The experiments above have shown that CLL cells are usually very sensitive to EX2. However, these cells were isolated from peripheral blood, and the real problem to curing CLL is to be able to kill cells that reside in the lymph node or bone marrow niche. To mimic this niche, we have used L4.5 cells that express CD154. Co-incubation of CLL cells on this stroma for 24 h elicits marked resistance to many drugs including the BCL-2 inhibitor ABT-199 (FIG. 7). […] However, when ABT-199 and EX2 were combined, marked apoptosis was again observed. For example, 100 nM ABT-199 alone induced about 10% apoptosis, whereas when combined with 1 μM EX2, >60% apoptosis was observed within 6 h. The combination of 1 μM EX2 and 1 μM ABT-199 induced about 80% apoptosis. […]

[1] = tested on: normal peripheral lymphocytes; experiment: Toxicity to normal peripheral lymphocytes (PARP cleavage, chromatin condensation); type: cell-based, human; settings: for PARP cleavage / apoptosis in normal peripheral lymphocytes: 0-1 μM EX2, 1-10 nM ABT-199 or 100 nM dinaciclib, each alone
Method: as §2
(§3) Cells were lysed in urea sample buffer [4 mol/L urea, 10% β-mercaptoethanol, 6% w/v SDS, 125 mmol/L Tris (pH 6.8), 0.01% w/v bromphenol blue, and protease/phosphatase inhibitor cocktail] and boiled for 5 min. Proteins were subsequently separated by SDS-PAGE (10 or 15% w/v) and transferred to polyvinylidene difluoride membrane (Millipore). Membranes were blocked with 5% w/v nonfat milk in TBS and 0.05% w/v Tween 20, and were probed with the appropriate primary antibody overnight. Subsequently, membranes were washed in TBS and 0.05% w/v Tween 20, and then incubated with secondary antibody conjugated to horseradish peroxidase. Proteins were visualized by enhanced chemiluminescence (Amersham). Actin was used as a loading control in Western blots.
To test the potential toxicity of EX2, normal peripheral lymphocytes were isolated from a healthy volunteer and incubated with EX2 alone or in combination with ABT-199.

hERG channel = hERG channel (Homo sapiens, UniProt Q12809); experiment: hERG channel inhibition, in vitro testing; type: biochemical
hERG channel, sequence (Q12809 whole entry): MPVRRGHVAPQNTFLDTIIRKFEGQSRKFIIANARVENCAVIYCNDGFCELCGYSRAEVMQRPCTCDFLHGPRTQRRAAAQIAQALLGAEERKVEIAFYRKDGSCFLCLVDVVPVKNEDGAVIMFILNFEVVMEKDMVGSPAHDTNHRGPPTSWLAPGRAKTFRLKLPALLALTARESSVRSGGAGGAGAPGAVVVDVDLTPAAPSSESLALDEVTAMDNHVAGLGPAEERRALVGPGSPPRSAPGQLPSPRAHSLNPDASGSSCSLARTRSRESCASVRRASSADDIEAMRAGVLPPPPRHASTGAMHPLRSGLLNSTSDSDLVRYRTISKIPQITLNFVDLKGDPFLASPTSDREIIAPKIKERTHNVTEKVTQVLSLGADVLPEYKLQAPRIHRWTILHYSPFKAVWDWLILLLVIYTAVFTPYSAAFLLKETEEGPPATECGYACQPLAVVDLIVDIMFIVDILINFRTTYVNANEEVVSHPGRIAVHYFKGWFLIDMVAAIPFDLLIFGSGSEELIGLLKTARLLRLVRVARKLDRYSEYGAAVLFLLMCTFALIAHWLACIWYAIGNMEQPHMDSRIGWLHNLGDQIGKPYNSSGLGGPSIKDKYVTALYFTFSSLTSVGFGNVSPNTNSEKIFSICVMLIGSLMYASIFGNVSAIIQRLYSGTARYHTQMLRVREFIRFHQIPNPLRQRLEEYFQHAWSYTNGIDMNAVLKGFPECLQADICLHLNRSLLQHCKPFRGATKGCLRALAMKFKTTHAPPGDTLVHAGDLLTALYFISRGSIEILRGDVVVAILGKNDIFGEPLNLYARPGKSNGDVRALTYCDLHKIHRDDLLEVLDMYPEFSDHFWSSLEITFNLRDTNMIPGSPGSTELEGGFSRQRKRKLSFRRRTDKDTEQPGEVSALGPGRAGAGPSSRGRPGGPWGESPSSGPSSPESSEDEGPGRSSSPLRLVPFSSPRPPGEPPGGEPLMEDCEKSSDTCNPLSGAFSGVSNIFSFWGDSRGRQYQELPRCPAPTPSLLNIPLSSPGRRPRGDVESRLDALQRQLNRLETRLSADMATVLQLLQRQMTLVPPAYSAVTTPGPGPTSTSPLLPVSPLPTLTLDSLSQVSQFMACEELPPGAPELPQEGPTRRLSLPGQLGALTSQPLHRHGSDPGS
Source text: (§4) Signs of cardiomyopathy were decreased in severity and incidence by 14 days after the 2-cycles of treatment, indicating recovery or reversibility of the effects. The implications of these findings for humans are not clear as these cardiovascular effects were not observed in dog toxicity studies. […] Thus an effect on the hERG channel is expected to be slight, if any, at efficacious doses of Example 2.

[2] = Dog toxicity studies, cardiovascular effects; type: in vivo; settings: dogs
Source text: as §4

microtubules in PBMCs = experiment: Disruption of microtubules in PBMCs of dosed subjects; type: in vivo, human; settings: doses of 12.6 and 16 mg/m^2
CLL cells [3] = experiment: Immunoblot analysis (PARP cleavage, pJNK, Noxa) in CLL cells; type: cell-based, human
Method: as §1, §3

Jeko-1 cells = experiment: Kinetics of apoptosis in Jeko-1 cells (Western blots); type: cell-based; settings: 20 nM EX2 (FIG. 6)
Method: FIG. 6: Kinetics of compounds of Formula (I) induced apoptosis in Jeko-1 cells. Western blots of Jeko-1 cells incubated with 20 nM compounds of Formula (I). “C”=a control cell line incubated with 2 μM vinblastine as a positive control for protein expression.
as §3

advanced solid tumors = experiment: Phase I study of Example 2 in subjects with advanced solid tumors; type: in vivo, human
Method: (§5) The recommended Phase 2 dose (RP2D) of Example 2 is evaluated in subjects with advanced solid tumors. Dosing is at a level of 2.1 mg/m^2. The dose of 16 mg/m^2 is deemed to be an MTD. In this study, adverse events are seen across all dose groups. The two most common categories of AE's are gastrointestinal disorders (nausea, vomiting, constipation) and general disorders (predominantly fatigue). Disorders related to bone marrow suppression are rare. Anemia is reported in one patient at a dose level of 8.4 mg/m^2 and in two patients at a dose level of 18.9 mg/m^2. […] Similarly, in a phase 11 study of Example 2 in patients with malignant pleural mesothelioma grade 1-2 gastrointestinal and general disorders are the predominant AE's: in 87% and 50% of patients correspondingly. Grade 3 fatigue is observed in 8% of patients. Finally, grade 1-2 anemia is reported in 33% of study participants.
Thus, this study employs 8 mg/m^2 iv on days 1 and 8 (cycle 1) or 8 and 15 (cycles 2-6) of a 21-day cycle as a starting dose of Example 2. This dose corresponds to a dose one tier below that sufficient to induce disruption of microtubules, yet also is lower than the currently established MTD in a Phase I study of Example 2 in patients with solid tumors. […] The study follows a standard 3+3 Phase I design (between 3 and 6 patients are enrolled at each dose tier). The dose of the drug is escalated to 16 mg/m^2, toxicities permitting. If toxicities emerge at dose level 1, the dose of Example 2 is de-escalated to 4 mg/m^2. […] Preliminary assessment of response and pharmacodynamic endpoints of treatment with Example 2 is assessed at several dose levels allowing for more careful selection of RP2D in CLL.

[4] = 2-cycle rat toxicity study; type: in vivo; settings: rats, 2 cycles; decreased in severity and incidence by 14 days after treatment
Source text: as §4

[5] = Cardiovascular safety pharmacology study in telemetered dogs; type: in vivo, dog; settings: doses up to 0.8 mg/kg (highest dose assessed)
Source text: as §4

CLL cells [6] = experiment: Chromatin condensation (Hoechst 33342) apoptosis scoring in freshly isolated CLL cells; type: cell-based, human
Method: as §1, §2

[7] = tested on: malignant pleural mesothelioma; experiment: Phase II study of Example 2 in patients with malignant pleural mesothelioma; type: in vivo, human
Method: as §5

[8] = healthy volunteer, 6 h, 0-1 μM EX2

CC1(C)CCC(CN2CCN(c3ccc(C(=O)NS(=O)(=O)c4ccc(NCC5CCOCC5)c([N+](=O)[O-])c4)c(Oc4cnc5[nH]ccc5c4)c3)CC2)=C(c2ccc(Cl)cc2)C1 [ABT-199, reference compound]
apoptosis (CLL cells on L4.5 stroma; 100 nM ABT-199 alone, CLL cells on stroma, 6 h): about 10% | chromatin condensation in normal peripheral lymphocytes ([1]; ABT-199 1-10 nM with or without EX2, 6 h): no chromatin condensation was observed | PARP cleavage / apoptosis in normal peripheral lymphocytes ([1]; healthy volunteer, 6 h): slight PARP cleavage

CCc1cnn2c(NCc3ccc[n+]([O-])c3)cc(N3CCCC[C@H]3CCO)nc12 [Dinaciclib, reference compound]
PARP cleavage / apoptosis in normal peripheral lymphocytes ([1]; healthy volunteer, 6 h): some apoptosis

COc1cc(C(=O)c2c(C)oc3c(O)c(OC)ccc23)cc(OC)c1OC [Example 1, 2-Methyl-7-hydroxy-3-(3,4,5-trimethoxybenzoyl)-6-methoxybenzofuran]
IC50 (hERG channel): > 6.71 µM

COc1cc(C(=O)c2c(C)oc3c(OP(=O)([O-])[O-])c(OC)ccc23)cc(OC)c1OC.[Na+].[Na+] [Example 2, Disodium 6-methoxy-2-methyl-3-(3,4,5-trimethoxybenzoyl)benzofuran-7-yl phosphate]
effects on the cardiovascular system [2]: no effects on the cardiovascular system | effect on microtubules in PBMCs (microtubules in PBMCs): briefly disrupt microtubules | PARP cleavage in presence of JNK inhibitor VIII (CLL cells [3]; 0-1 μM EX2, 6 h, with JNK inhibitor VIII): completely prevented | PARP cleavage by 24 h (CLL cells [3]; 20 nM, patient 114, incubated up to 24 h (FIG. 5)): almost total cleavage of PARP | JNK activation and PARP cleavage five hours after removing EX2 (CLL cells [3]; 1 h pulse treatment, then 5 h without EX2, versus continuous incubation): still observed albeit slightly less | concentration at which apoptosis, pJNK and Noxa expression began to appear (CLL cells [3]; 6 h, patient 49 (FIG. 2A)): 5 nM | time to activation of JNK (CLL cells [3]; CLL cells incubated with EX2): less than one hour | pJNK and NOXA in protein lysates (CLL cells [3]; same concentrations of EX2 (10-100 nM), 6 h): increased | time by which apoptosis was complete (Jeko-1 cells): up to 24 h | IC50 (hERG channel): > 979 µM | apoptosis of co-cultured CLL cells, EX2 alone (CLL cells on L4.5 stroma; 1 μM EX2, 24 h on L4.5 stroma then 6 h drug): no apoptosis observed | anemia, patients reported (advanced solid tumors; dose level 8.4 mg/m^2): one patient | anemia, patients reported (advanced solid tumors; dose level 18.9 mg/m^2): two patients | grade 4 events (advanced solid tumors; dose level 18.9 mg/m^2, same subject): Two grade 4 events (myocardial infarction and peripheral neuropathy) | MTD (advanced solid tumors; subjects with advanced solid tumors): 16 mg/m^2 | cardiac finding [4]: dose-dependent, reversible cardiomyopathy | effects on cardiovascular or respiratory function [5]: no effects on cardiovascular or respiratory function | potency as inducer of apoptosis compared with vinblastine and combretastatin A4 (CLL cells [6]; chromatin condensation and PARP cleavage, 6 h, 3-6 patients): more potent inducer of apoptosis | concentration at which apoptosis (chromatin condensation) was observed (CLL cells [6]; freshly isolated CLL cells, media with 0-1 μM EX2, 6 h (FIG. 1)): 10 to 100 nM | Grade 3 fatigue, patients [7]: 8% | grade 1-2 anemia, study participants [7]: 33% | grade 1-2 gastrointestinal disorders, patients [7]: 87% | grade 1-2 general disorders, patients [7]: 50% | Noxa induction in normal peripheral lymphocytes [1, 8]: no Noxa was induced | pJNK in normal peripheral lymphocytes [1, 8]: activated | PARP cleavage / apoptosis in normal peripheral lymphocytes ([1]; healthy volunteer, 6 h): no significant PARP cleavage or chromatin condensation
